Laboratory results taken from patent publication US9657015B2, “Substituted bicyclic dihydropyrimidinones and their use as inhibitors of neutrophil elastase activity” (Boehringer Ingelheim International GmbH, priority 2014, dated 2017).
Values after ≈ are worked out from the molar mass of the structure shown.

Columns and labels:
[1] = biological target: Human neutrophil elastase (Homo sapiens (Human), UniProt P08246); assay: Human Neutrophil Elastase Assay; assay type: biochemical; details: substrate MeOSuc-Ala-Ala-Pro-Val-AMC 250 μM, pH 7.5, room temperature
Sequence of Human neutrophil elastase (P08246 30-247): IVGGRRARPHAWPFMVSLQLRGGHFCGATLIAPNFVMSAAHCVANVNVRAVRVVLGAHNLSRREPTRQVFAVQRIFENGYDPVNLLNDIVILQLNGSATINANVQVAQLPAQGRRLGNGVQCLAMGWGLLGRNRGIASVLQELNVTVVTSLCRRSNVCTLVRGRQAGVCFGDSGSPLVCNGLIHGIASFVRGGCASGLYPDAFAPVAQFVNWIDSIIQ
Protocol: The following buffers were used: Compound buffer: 100 mM Tris, 500 mM NaCl, adjusted to pH 7.5; Assay buffer: 100 mM Tris, 500 mM NaCl, adjusted to pH 7.5, containing 0.01% BSA.
Assay conditions: Test compounds were prediluted in DMSO and subsequently in compound buffer (5% DMSO final). […] After inactivation of the enzyme, fluorescence intensities were measured at 380 nm excitation and 460 nm emission wavelengths.
Each plate contains wells with a high value control (DMSO+enzyme+substrate) and wells with a low value control (DMSO+inactivated enzyme+substrate). IC50 values were estimated using a sigmoidal concentration response curve with variable slope. Means of low values were taken as 0%, means of high values as 100%.

[2] = biological target: neutrophil elastase in human plasma (Homo sapiens (Human), UniProt P08246); assay: Neutrophil elastase inhibitory activity in human plasma; assay type: biochemical; details: human plasma assay (zymosan-stimulated blood plasma), substrate 250 μM, pH 7.5
Sequence of neutrophil elastase in human plasma (P08246 30-247): as above
Protocol: Assay for the Determination of Neutrophil Elastase Inhibitory Activity in Human Plasma
Citrated blood from human healthy donors is mixed with zymosan suspension and incubated at room temperature. This leads to the stimulation of neutrophils and the release of neutrophil elastase into the plasma. The stimulated blood is centrifuged to generate the neutrophil elastase enriched plasma.
Preparation of Zymosan Working Solution:
Various concentrations of the neutrophil elastase inhibitor are incubated with plasma. […] A dose response curve is generated to calculate the EC50 of the inhibitor.

[3] = Metabolic stability with human liver microsomes; assay type: in vitro ADME; details: pH 7.6; pooled human liver microsomes, 37° C., 1 μM test compound, 1 mg/ml microsomal protein, NADPH; read-out: t1/2 INVITRO
[4] = Drug transport across human Caco-2 cells; assay type: in vitro ADME; details: human, Caco-2 monolayers, pH 7.2, 37° C.; for Papp A→B at 10 µM: apical-to-basal, read-out: PEAB; for Papp B→A at 10 µM: basal-to-apical, read-out: PEBA
Source text: (§1) Assay for Determination of Drug Transport Across Human Caco-2 Cells
(§2) The assay provides information on the potential of a compound to pass the cell membrane, on the extent of oral absorption as well as on whether the compound is actively transported by uptake and/or efflux transporters. For the measurement of permeability across polarized, confluent human cancer colon carcinoma cells 2 (Caco-2) cell monolayers grown on permeable filter supports are used as the in vitro absorption model.
(§3) Apparent permeability coefficients (PE) of the compounds across the Caco-2 monolayers are measured (pH 7.2, 37° C.) in apical-to-basal (AB) (absorptive) and basal-to-apical (BA) (secretory) transport direction. AB permeability (PEAB) represents drug absorption from the intestine into the blood and BA permeability (PEBA) drug secretion from the blood back into the intestine via both passive permeability as well as active transport mechanisms mediated by efflux and uptake transporters that are expressed on the Caco-2 cells. The compounds are assigned to permeability/absorption classes by comparison of the AB permeabilities with the AB permeabilities of reference compounds with known in vitro permeability and oral absorption in the human. Identical or similar permeabilities in both transport directions indicate passive permeation, vectorial permeability points to additional active transport mechanisms. […] Active transport is concentration-dependently saturable.
(§4) Caco-2 cells (1-2*10^5 cells/cm^2 area) are seeded on filter inserts (Costar transwell polycarbonate or PET filters, 0.4 μm pore size) and cultured (DMEM) for 10 to 25 days. Compounds are dissolved in appropriate solvent (like DMSO, 1-20 mM stock solutions). Stock solutions are diluted with HTP-4 buffer (128.13 mM NaCl, 5.36 mM KCl, 1 mM MgSO4, 1.8 mM CaCl2, 4.17 mM NaHCO3, 1.19 mM Na2HPO4×7H2O, 0.41 mM NaH2PO4×H2O, 15 mM HEPES, 20 mM glucose, pH 7.2) to prepare the transport solutions (typically 10 μM compound, final DMSO<=0.5%). The transport solution (TL) is applied to the apical or basolateral donor side for measuring A-B or B-A permeability (3 filter replicates), respectively. The receiver side contains HTP-4 buffer supplemented with 2% BSA. Samples are collected at the start and end of experiment from the donor and at various time intervals for up to 2 hours also from the receiver side for concentration measurement by LC-MS/MS or scintillation counting. Sampled receiver volumes are replaced with fresh receiver solution.
(§5) The apparent permeability coefficients (PEAB and PEBA) of selected compounds in the Caco-2 drug transport assay described above are listed in Table 9.

[5] = Aqueous solubility (High Throughput Method); assay type: physicochemical; details: McIlvaine buffer pH 6.8, 2.5% DMSO, 24 h shaking; for solubility at 24 h: McIlvaine buffer pH 6.8 with 2.5% DMSO, aqueous buffer, kinetic from dmso stock
Protocol: Assay for Determination of Aqueous Solubility (“High Throughput Method”)
Starting from a 10 mM DMSO stock solution, aliquots are diluted with acetonitrile/water (1/1) and McIlvaine buffer pH 6.8, respectively. After 24 h of shaking, the solutions or suspensions are filtered and analyzed by LC-UV. The amount dissolved in buffer is compared to the amount dissolved in the acetonitrile/water (1/1) solution. Solubility is measured from 0.001 to 0.125 mg/ml at a DMSO concentration of 2.5%. If more than 90% of the compound is dissolved in buffer, the value is marked with “>”.

[6] = Aqueous solubility (Shaked Flask Method); assay type: physicochemical; details: aqueous buffer, thermodynamic from solid, pH 6.8 (McIlvaine buffer)
Protocol: Assay for Determination of Aqueous Solubility (“Shaked Flask Method”)
Saturated solutions are prepared in well plates by adding an appropriate volume of selected aqueous media (typically in the range of 0.25-1.5 ml) into each well which contains a known quantity of solid drug substance (typically in the range 0.5-5.0 mg). The wells are shaken or stirred for a predefined time period (typically in a range of 2-24 h) and then filtered using appropriate filter membranes (typically PTFE-filters with 0.45 μm pore size). Filter absorption is avoided by discarding the first few drops of filtrate. The amount of dissolved drug substance is determined by UV spectroscopy or by HPLC with UV-detection. In addition, the pH of the aqueous saturated solution is measured using a glass-electrode pH meter.

cytochrome P450 2C9 = cytochrome P450 2C9 (Homo sapiens (Human), UniProt P11712); assay: Cytochrome P450 2C9 inhibition; assay type: in vitro ADME; details: human liver microsomes, Diclofenac hydroxylation, 37° C.
Sequence of cytochrome P450 2C9 (P11712 whole entry): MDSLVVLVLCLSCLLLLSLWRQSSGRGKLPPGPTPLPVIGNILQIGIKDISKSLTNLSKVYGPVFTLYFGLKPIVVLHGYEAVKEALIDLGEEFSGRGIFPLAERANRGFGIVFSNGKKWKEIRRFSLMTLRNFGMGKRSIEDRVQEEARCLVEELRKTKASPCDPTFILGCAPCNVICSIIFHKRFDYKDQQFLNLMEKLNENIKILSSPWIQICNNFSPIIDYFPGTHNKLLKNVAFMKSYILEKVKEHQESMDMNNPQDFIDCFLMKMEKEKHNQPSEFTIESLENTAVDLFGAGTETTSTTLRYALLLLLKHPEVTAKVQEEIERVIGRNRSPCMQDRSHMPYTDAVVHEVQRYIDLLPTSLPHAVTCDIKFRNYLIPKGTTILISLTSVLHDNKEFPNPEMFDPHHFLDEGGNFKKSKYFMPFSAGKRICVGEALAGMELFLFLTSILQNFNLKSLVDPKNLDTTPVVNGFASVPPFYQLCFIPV
Source text: Assay for Determination of Cytochrome P450 2C9 Inhibition

cytochrome P450 2C19 = cytochrome P450 2C19 (Homo sapiens (Human), UniProt P33261); assay: Cytochrome P450 2C19 inhibition; assay type: in vitro ADME; details: human liver microsomes, (S)-Mephenytoin hydroxylation, 37° C.
Sequence of cytochrome P450 2C19 (P33261 whole entry): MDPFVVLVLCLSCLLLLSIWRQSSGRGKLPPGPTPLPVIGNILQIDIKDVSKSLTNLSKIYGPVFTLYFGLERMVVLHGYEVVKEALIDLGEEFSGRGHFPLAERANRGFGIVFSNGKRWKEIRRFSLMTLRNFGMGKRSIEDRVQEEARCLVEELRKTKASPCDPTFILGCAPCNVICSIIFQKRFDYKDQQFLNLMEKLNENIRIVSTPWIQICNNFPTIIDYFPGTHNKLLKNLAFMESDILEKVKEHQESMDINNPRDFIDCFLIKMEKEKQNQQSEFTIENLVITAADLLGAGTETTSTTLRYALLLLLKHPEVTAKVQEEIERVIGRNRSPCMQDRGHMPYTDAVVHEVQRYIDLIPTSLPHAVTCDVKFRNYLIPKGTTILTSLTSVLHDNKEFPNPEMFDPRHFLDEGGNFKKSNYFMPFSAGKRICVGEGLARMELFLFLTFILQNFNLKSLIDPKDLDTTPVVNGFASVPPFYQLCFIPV
Source text: Assay for Determination of Cytochrome P450 2C19 Inhibition

cytochrome P450 2C8 = cytochrome P450 2C8 (Homo sapiens (Human), UniProt P10632); assay: Cytochrome P450 2C8 inhibition; assay type: in vitro ADME; details: human liver microsomes, Amodiaquine deethylation, 37° C.
Sequence of cytochrome P450 2C8 (P10632 whole entry): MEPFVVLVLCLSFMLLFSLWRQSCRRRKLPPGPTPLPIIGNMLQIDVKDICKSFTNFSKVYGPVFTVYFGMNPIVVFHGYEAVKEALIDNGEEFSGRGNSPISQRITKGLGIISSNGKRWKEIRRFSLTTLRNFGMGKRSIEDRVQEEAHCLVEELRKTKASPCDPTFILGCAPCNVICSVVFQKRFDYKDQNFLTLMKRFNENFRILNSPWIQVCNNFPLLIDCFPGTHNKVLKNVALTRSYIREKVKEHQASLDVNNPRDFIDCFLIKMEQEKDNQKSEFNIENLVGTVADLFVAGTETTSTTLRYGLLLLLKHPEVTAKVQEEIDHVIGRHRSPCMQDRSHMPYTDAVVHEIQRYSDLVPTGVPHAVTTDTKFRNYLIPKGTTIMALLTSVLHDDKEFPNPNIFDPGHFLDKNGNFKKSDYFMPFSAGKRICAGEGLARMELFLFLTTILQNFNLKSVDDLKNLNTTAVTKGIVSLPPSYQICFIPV
Source text: Assay for Determination of Cytochrome P450 2C8 Inhibition

[7] = Metabolic stability with human hepatocytes; assay type: in vitro ADME; details: human hepatocyte suspension (typically cryopreserved), 1 μM test compound, six hours, scaled with well stirred model
Protocol: Assay for the Determination of Metabolic Stability with Human Hepatocytes
The metabolic degradation of the test compound is assayed in a human hepatocyte suspension. Human hepatocytes (typically cryopreserved) are incubated in an appropriate buffer system (e.g. Dulbecco's modified eagle medium plus 3.5 μg glucagon/500 mL, 2.5 mg insulin/500 mL and 3.75 mg/500 mL hydrocortison) containing 5% species serum. Following a (typically) 30 min preincubation in an incubator (37° C., 10% CO2), 5 μl of test compound solution (80 μM; from 2 mM stock solution in DMSO diluted 1:25 with medium) are added into 395 μl hepatocyte suspension (cell density in the range 0.25-5*10^6 cells/mL, typically 1*10^6 cells/mL; final concentration of test compound 1 μM, final DMSO concentration 0.05%). The cells are incubated for six hours (incubator, orbital shaker) and samples (25 μl) are taken at 0, 0.5, 1, 2, 4 and 6 hours. Samples are transferred into acetonitrile and pelleted by centrifugation (5 min) The supernatant is transferred to a new 96-deepwell plate, evaporated under nitrogen and resuspended. The decline of parent compound is analyzed by LC-MS/MS.
The intrinsic clearance CL_[…] is calculated as follows: CL_[…]=Dose/AUC=(C0/CD)/(AUD+clast/k)*1′000/60 (C0: initial concentration in the incubation [μM], CD: cell density of vital cells [10^6 cells/mL], AUD: area under the data [μM*h], clast: concentration of last data point [μM], k: slope of the regression line for parent decline [h^−1])
The calculated in vitro hepatic intrinsic clearance can be scaled up to the intrinsic in vivo hepatic clearance and used to predict hepatic in vivo blood clearance (CL) by the use of a liver model (well stirred model): CL_[…]_INVIVO [ml/min/kg]=(CL_[…] [μL/min/10^6 cells]*hepatocellularity [10^6 cells/g liver]*liver factor [g/kg bodyweight])/1′000 CL [ml/min/kg]=CL_[…]_INVIVO [ml/min/kg]*hepatic blood flow [ml/min/kg]/(CL_[…]_INVIVO [ml/min/kg]+hepatic blood flow [ml/min/kg]) Qh [%]=CL [ml/min/kg]/hepatic blood flow [ml/min/kg]) (Hepatocellularity, human: 120*10^6 cells/g liver; liver factor, human: 25.7 g/kg bodyweight; blood flow, human: 21 ml/(min*kg))

Caco-2 cells = assay: Drug transport across human Caco-2 cells; assay type: in vitro ADME; details: Caco-2 monolayers, pH 7.2, 37° C.; for PEAB: apical-to-basal; for PEBA: basal-to-apical
Source text: as §1, §2, §3, §4, §5

Structure (SMILES) | IC50 [1] [nM] | IC50 [2] [nM] | half-life at 1 μM [3] [h] | Papp A→B at 10 µM [4] [×10⁻⁶ cm/s] | Papp B→A at 10 µM [4] [×10⁻⁶ cm/s] | solubility at 24 h [5] [µg/mL] | solubility [6] [µg/mL] | IC50 (cytochrome P450 2C9) [nM] | IC50 (cytochrome P450 2C19) [nM] | IC50 (cytochrome P450 2C8) [nM] | CLhep predicted at 1 μM [7] [mL/min/kg] | PEAB (Caco-2 cells) [×10⁻⁶ cm/s] | PEBA (Caco-2 cells) [×10⁻⁶ cm/s] | Aqueous solubility [5] [µg/mL]
N#Cc1ccc([C@H]2NC(=O)N(c3cccc(C(F)(F)F)c3)C3=C2C(=O)NCC3)cc1 [Example 1A, (R)-4-(2,5-Dioxo-1-(3-(trifluoromethyl)phenyl)-1,2,3,4,5,6,7,8-octahydropyrido[4,3-d]-pyrimidin-4-yl)benzonitrile] | 3.1 | 3.4 | > 2.17 | 6.6 | 44 | > 100 | ≥ 10 | > 50000 | > 50000 | > 50000 | – | – | – | –
CN1C(=O)N(c2cccc(C(F)(F)F)c2)C2=C(C(=O)NCC2)[C@H]1c1ccc(C#N)cc1-c1cnco1 [Example 30A, 4-[(4R)-3-Methyl-2,5-dioxo-1-[3-(trifluoromethyl)phenyl]-1H,2H,3H,4H,5H,6H,7H,8H-pyrido[4,3-d]pyrimidin-4-yl]-3-(1,3-oxazol-5-yl)-benzonitrile] | – | < 1 | > 2.17 | 11 | 85 | 60 (≈ 122 µM) | ≥ 10 | – | – | – | 3 | – | – | –
CN1C(=O)N(c2cccc(C(F)(F)F)c2)C2=C(C(=O)NCC2)[C@H]1c1ccc(C#N)cc1CO [Example 32A, 3-(Hydroxymethyl)-4-[(4R)-3-methyl-2,5-dioxo-1-[3-(trifluoromethyl)phenyl]-1H,2H,3H,4H,5H,6H,7H,8H-pyrido[4,3-d]pyrimidin-4-yl]benzonitrile] | < 1 | < 1 | – | 6.9 | 61 | 19 (≈ 41.6 µM) | ≥ 10 | – | – | – | 3 | – | – | –
CN1C(=O)N(c2cccc(C(F)(F)F)c2)C2=C(C(=O)NCC2)C1c1ccc(C#N)cc1-c1cccnc1 (stereo not drawn) [Example 34, 4-{3-Methyl-2,5-dioxo-1-[3-(trifluoromethyl)phenyl]-1H,2H,3H,4H,5H,6H,7H,8H-pyrido[4,3-d]pyrimidin-4-yl}-3-(pyridin-3-yl)benzonitrile] | < 1 | 1.6 | – | 11 | 79 | – | – | > 50000 | > 50000 | > 50000 | 4 | – | – | –
CN1CCC2=C(C1=O)C(c1ccc(C#N)cc1-c1cccnc1)N(C)C(=O)N2c1cccc(C(F)(F)F)c1 (stereo not drawn) [Example 36.1] | 1.4 | 1.8 | – | – | – | – | – | – | – | – | – | 26 | 110 | 70
CN1CCC2=C(C1=O)C(c1ccc(C#N)cc1-c1ccncc1)N(C)C(=O)N2c1cccc(C(F)(F)F)c1 (stereo not drawn) [Example 36.2] | 1.3 | 1.8 | – | – | – | – | – | – | – | – | – | 25 | 150 | 70
CN1CCC2=C(C1=O)C(c1ccc(C#N)cc1-c1cncnc1)N(C)C(=O)N2c1cccc(C(F)(F)F)c1 (stereo not drawn) [Example 36.3] | 1.1 | 1.4 | – | – | – | – | – | – | – | – | – | 12 | 110 | 76
CN1CCC2=C(C1=O)C(c1ccc(C#N)cc1-c1cnco1)N(C)C(=O)N2c1cccc(C(F)(F)F)c1 (stereo not drawn) [Example 37, 4-{3,6-Dimethyl-2,5-dioxo-1-[3-(trifluoromethyl)phenyl]-1H,2H,3H,4H,5H,6H,7H,8H-pyrido[4,3-d]pyrimidin-4-yl}-3-(1,3-oxazol-5-yl)benzonitrile] | < 1 | 1.1 | > 2.17 | 32 | 90 | 60 (≈ 118 µM) | ≥ 10 | – | – | – | – | – | – | –
